Tests used:
Type in all cases: ADME, organism-based
[1] = Oral bioavailability in Lewis rat at […]; conditions: in vivo
[2] = Volume of distribution at steady state in Lewis rat at 0.5 mg/kg, iv; design: dose 0.5 mg/kg, route intravenous; conditions: in vivo, read-out: Vdss
[3] = Terminal half life in Lewis rat plasma at 0.5 mg/kg, iv; design: dose 0.5 mg/kg, route intravenous; conditions: read-out: beta t1/2 (converted)
[4] = Clearance in Lewis rat plasma at 0.5 mg/kg, iv; design: dose 0.5 mg/kg, route intravenous

bioavailability [1]: 113%
Vd [2]: 0.6 L/kg
half-life [3]: 1.3 h
clearance [4]: 6 mL/min/kg
Compound: Cc1ccc(C(=O)NC2CC2)cc1-c1ccc(C(=O)NCC2CC2)cc1

From ChEMBL document CHEMBL1155838, “Biphenyl amide p38 kinase inhibitors 3: Improvement of cellular and in vivo activity” (Bioorg Med Chem Lett, 2008)
